# Columns and labels:
# [1] = Free and bound catechins: binding to lecithin (centrifugation, HPLC); conditions: for binding to the lecithin (in words): green tea samples with lecithin 0.05, 0.1, 0.15%
# Experimental: Phosphate buffer was added to each sample to give a final concentration of 20 mM at pH 6.0 before they were pre-homogenized with an Ultraturrax at full speed. The dispersions were flushed with nitrogen for 5 minutes and then green tea extract was added for a final concentration of 0.2%. After gentle stirring for 15 min the mixes were finally homogenized with a Microfluidizer processor (Microfluidics, Newton, Mass., USA) with 1 run at 250 bar. […] The homogenized dispersions were filled into 1 lt glass bottles and were sterilized (30 sec at 80° C.) in a water bath heated with steam. Green tea catechins were analysed in the fresh and stored samples by HPLC on a C-18 column, using UV detection at 280 nm. For total catechin determination samples were treated with concentrated acetic acid and the extracts were stabilised with ascorbic acid, EDTA and acetonitrile. For free catechin determination each sample was previously spun at 14,000×g for 30 min using an Eppendorf (Dr Vaudaux A G, Binningen, C H) centrifuge 5415. The resulting supernatant was then treated as previously described. Stability and binding to phospholipids were calculated for (-)-epigallocatechin (Egc), (-)-epigallocatechin-3-gallate (Egcg), and caffeine.
# [2] = Stability of green tea catechins during storage at room temperature (HPLC); assay type: physicochemical; conditions: for catechins (% recovered): room temperature, pH 6.0
# Experimental: Soya lecithin was dispersed in distilled water to yield different concentrations (0.05%; 0.1% and 0.2%) by stirring the mixes at 37° C. for 2 h. Phosphate buffer was added to each sample to give a final concentration of 20 mM at pH 6.0 before they were pre-homogenized with an Ultraturrax at full speed. The dispersions were flushed with nitrogen for 5 minutes and then green tea extract was added for a final concentration of 0.2%. After gentle stirring for 15 min the mixes were finally homogenized with a Microfluidizer processor (Microfluidics, Newton, Mass., USA) with 1 run at 250 bar. The same protocol was followed for preparing the green tea control except that no lecithin was added. The homogenized dispersions were filled into 1 lt glass bottles and were sterilized (30 sec at 80° C.) in a water bath heated with steam.
# The sterilized samples were stored at room temperature up to 25 days. No microbiological contamination with mesophilic germs or Enterobacteriaceae was detected throughout the storage test.
# Green tea catechins were analysed in the fresh and stored samples by HPLC on a C-18 column, using UV detection at 280 nm. For total catechin determination samples were treated with concentrated acetic acid and the extracts were stabilised with ascorbic acid, EDTA and acetonitrile. For free catechin determination each sample was previously spun at 14,000×g for 30 min using an Eppendorf (Dr Vaudaux A G, Binningen, C H) centrifuge 5415. The resulting supernatant was then treated as previously described. Stability and binding to phospholipids were calculated for (−)-epigallocatechin (Egc), (−)-epigallocatechin-3-gallate (Egcg), and caffeine.
# [3] = green tea 0.2% + lecithin 0.05%, storage 0 d
# [4] = green tea 0.2% + lecithin 0.05%, storage 2 d
# [5] = green tea 0.2% + lecithin 0.05%, storage 9 d
# [6] = green tea 0.2% + lecithin 0.05%, storage 13 d
# [7] = green tea 0.2% + lecithin 0.05%, storage 22 d
# [8] = green tea 0.2% + lecithin 0.1%, storage 0 d
# [9] = green tea 0.2% + lecithin 0.1%, storage 2 d
# [10] = green tea 0.2% + lecithin 0.1%, storage 9 d
# [11] = green tea 0.2% + lecithin 0.1%, storage 13 d
# [12] = green tea 0.2% + lecithin 0.1%, storage 22 d
# [13] = green tea 0.2% + lecithin 0.2%, storage 0 d
# [14] = green tea 0.2% + lecithin 0.2%, storage 2 d
# [15] = green tea 0.2% + lecithin 0.2%, storage 9 d
# [16] = green tea 0.2% + lecithin 0.2%, storage 13 d
# [17] = green tea 0.2% + lecithin 0.2%, storage 22 d
compound,measurement,setting,value
"O=C(O[C@@H]1Cc2c(O)cc(O)cc2O[C@@H]1c1ccc(O)c(O)c1)c1cc(O)c(O)c(O)c1 [Ecg, epicatechin gallate]",binding to the lecithin (in words),[1],interact with the added lecithin
"Oc1cc(O)c2c(c1)O[C@H](c1cc(O)c(O)c(O)c1)[C@H](O)C2 [Egc, (−)-epigallocatechin]",catechins (% recovered),[2]; [3],100%
same,catechins (% recovered),[2]; [4],92%
same,catechins (% recovered),[2]; [5],72%
same,catechins (% recovered),[2]; [6],59%
same,catechins (% recovered),[2]; [7],42%
same,catechins (% recovered),[2]; [8],100%
same,catechins (% recovered),[2]; [9],94%
same,catechins (% recovered),[2]; [10],70%
same,catechins (% recovered),[2]; [11],57%
same,catechins (% recovered),[2]; [12],39%
same,catechins (% recovered),[2]; [13],100%
same,catechins (% recovered),[2]; [14],91%
same,catechins (% recovered),[2]; [15],64%
same,catechins (% recovered),[2]; [16],49%
same,catechins (% recovered),[2]; [17],30%
same,catechins (% recovered),"[2]; green tea 0.2%, storage 0 d",100%
same,catechins (% recovered),"[2]; green tea 0.2%, storage 2 d",93%
same,catechins (% recovered),"[2]; green tea 0.2%, storage 9 d",65%
same,catechins (% recovered),"[2]; green tea 0.2%, storage 13 d",50%
same,catechins (% recovered),"[2]; green tea 0.2%, storage 22 d",28%
same,bound catechins (% recovered in pellet),[1]; [3],1%
same,bound catechins (% recovered in pellet),[1]; [4],3%
same,bound catechins (% recovered in pellet),[1]; [5],1%
same,bound catechins (% recovered in pellet),[1]; [6],1%
same,bound catechins (% recovered in pellet),[1]; [7],0%
same,bound catechins (% recovered in pellet),[1]; [8],2%
same,bound catechins (% recovered in pellet),[1]; [9],4%
same,bound catechins (% recovered in pellet),[1]; [10],2%
same,bound catechins (% recovered in pellet),[1]; [11],2%
same,bound catechins (% recovered in pellet),[1]; [12],2%
same,bound catechins (% recovered in pellet),[1]; [13],5%
same,bound catechins (% recovered in pellet),[1]; [14],6%
same,bound catechins (% recovered in pellet),[1]; [15],5%
same,bound catechins (% recovered in pellet),[1]; [16],5%
same,bound catechins (% recovered in pellet),[1]; [17],6%
same,bound catechins (% recovered in pellet),"[1]; green tea 0.2%, storage 0 d",3%
same,bound catechins (% recovered in pellet),"[1]; green tea 0.2%, storage 2 d",0%
same,bound catechins (% recovered in pellet),"[1]; green tea 0.2%, storage 9 d",0%
same,bound catechins (% recovered in pellet),"[1]; green tea 0.2%, storage 13 d",0%
same,bound catechins (% recovered in pellet),"[1]; green tea 0.2%, storage 22 d",0%
"O=C(O[C@@H]1Cc2c(O)cc(O)cc2O[C@@H]1c1cc(O)c(O)c(O)c1)c1cc(O)c(O)c(O)c1 [Egcg, (−)-epigallocatechin-3-gallate]",catechins (% recovered),[2]; [3],100%
same,catechins (% recovered),[2]; [4],95%
same,catechins (% recovered),[2]; [5],78%
same,catechins (% recovered),[2]; [6],68%
same,catechins (% recovered),[2]; [7],55%
same,catechins (% recovered),[2]; [8],100%
same,catechins (% recovered),[2]; [9],98%
same,catechins (% recovered),[2]; [10],82%
same,catechins (% recovered),[2]; [11],74%
same,catechins (% recovered),[2]; [12],62%
same,catechins (% recovered),[2]; [13],100%
same,catechins (% recovered),[2]; [14],99%
same,catechins (% recovered),[2]; [15],88%
same,catechins (% recovered),[2]; [16],82%
same,catechins (% recovered),[2]; [17],71%
same,catechins (% recovered),"[2]; green tea 0.2%, storage 0 d",100%
same,catechins (% recovered),"[2]; green tea 0.2%, storage 2 d",94%
same,catechins (% recovered),"[2]; green tea 0.2%, storage 9 d",67%
same,catechins (% recovered),"[2]; green tea 0.2%, storage 13 d",53%
same,catechins (% recovered),"[2]; green tea 0.2%, storage 22 d",33%
same,stabilisation by lecithin during storage (in words),[2]; storage of the green tea samples,dose-dependent stabilisation
same,bound catechins (% recovered in pellet),[1]; [3],18%
same,bound catechins (% recovered in pellet),[1]; [4],17%
same,bound catechins (% recovered in pellet),[1]; [5],21%
same,bound catechins (% recovered in pellet),[1]; [6],22%
same,bound catechins (% recovered in pellet),[1]; [7],22%
same,bound catechins (% recovered in pellet),[1]; [8],33%
same,bound catechins (% recovered in pellet),[1]; [9],30%
same,bound catechins (% recovered in pellet),[1]; [10],37%
same,bound catechins (% recovered in pellet),[1]; [11],38%
same,bound catechins (% recovered in pellet),[1]; [12],39%
same,bound catechins (% recovered in pellet),[1]; [13],46%
same,bound catechins (% recovered in pellet),[1]; [14],45%
same,bound catechins (% recovered in pellet),[1]; [15],53%
same,bound catechins (% recovered in pellet),[1]; [16],55%
same,bound catechins (% recovered in pellet),[1]; [17],59%
same,bound catechins (% recovered in pellet),"[1]; green tea 0.2%, storage 0 d",1%
same,bound catechins (% recovered in pellet),"[1]; green tea 0.2%, storage 2 d",1%
same,bound catechins (% recovered in pellet),"[1]; green tea 0.2%, storage 9 d",1%
same,bound catechins (% recovered in pellet),"[1]; green tea 0.2%, storage 13 d",2%
same,bound catechins (% recovered in pellet),"[1]; green tea 0.2%, storage 22 d",2%
same,binding to the lecithin (in words),[1],interact with the added lecithin
same,percentage of bound Egcg during storage (in words),[1]; lecithin containing green tea samples during storage,not only remained constant but rather slightly increased with time
Cn1c(=O)c2c(ncn2C)n(C)c1=O [caffeine],stability during storage (in words),[2],quite stable under the chosen storage conditions
